Among the data in ChEMBL document CHEMBL1147313, “Abrusosides A-D, four novel sweet-tasting triterpene glycosides from the leaves of Abrus precatorius” (J Nat Prod, 1989) are Activity values, retold here.

Each structure is given as a SMILES string.

For the data set, the system named is Mus musculus. The experiment in a line: Acute toxicity in Swiss-Webster mouse at 1 g/kg, po. The format is organism-based. Conditions: in vivo, 1000 mg/kg.
In the case of `COC(=O)[C@H]1O[C@@H](O[C@H]2[C@H](O[C@H]3CC[C@]45C[C@]46CC[C@]4(C)[C@@H]([C@H](C)[C@@H]7CC=C(C)C(=O)O7)CC[C@@]4(C)[C@@H]6CC[C@H]5[C@]3(C)C(=O)O)O[C@H](CO)[C@@H](O)[C@@H]2O)[C@H](O)[C@@H](O)[C@@H]1O` [ABRUSOSIDE B], the Activity entry was “Non-toxic”.

`CC1=CC[C@@H]([C@@H](C)[C@H]2CC[C@@]3(C)[C@@H]4CC[C@H]5[C@](C)(C(=O)O)[C@@H](O[C@@H]6O[C@H](CO)[C@@H](O)[C@H](O)[C@H]6O)CC[C@@]56C[C@@]46CC[C@]23C)OC1=O` [ABRUSOSIDE A]: the Activity entry is listed as “Non-toxic”.

Turning to `CC1=CC[C@@H]([C@@H](C)[C@H]2CC[C@@]3(C)[C@@H]4CC[C@H]5[C@](C)(C(=O)O)[C@@H](O[C@@H]6O[C@H](CO)[C@@H](O)[C@H](O)[C@H]6O[C@@H]6O[C@H](C(=O)O)[C@@H](O)[C@H](O)[C@H]6O)CC[C@@]56C[C@@]46CC[C@]23C)OC1=O` [ABRUSOSIDE D], the Activity result is “Non-toxic”.

On to `CC1=CC[C@@H]([C@@H](C)[C@H]2CC[C@@]3(C)[C@@H]4CC[C@H]5[C@](C)(C(=O)O)[C@@H](O[C@@H]6O[C@H](CO)[C@@H](O)[C@H](O)[C@H]6O[C@@H]6O[C@H](CO)[C@@H](O)[C@H](O)[C@H]6O)CC[C@@]56C[C@@]46CC[C@]23C)OC1=O` [ABRUSOSIDE C], for which the Activity entry is “Non-toxic”.
